Assays:
Experiment in all cases: NCI-60 screen (SRB)
Assay type in all cases: cell-based
MOLT-4 = MOLT-4 (Leukemia)
In short: (§1)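 Growth was measured as SRB-stained cellular protein after 48 h drug exposure in RPMI 1640 with 5% serum. Percentage growth relative to time-zero and control gave GI50, TGI (Ti = Tz) and LC50 (50% protein loss from start).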

SK-MEL-5 = SK-MEL-5 (Melanoma)
In short: as §1

HOP-92 = HOP-92 (Non-Small Cell Lung)
In short: as §1

UACC-257 = UACC-257 (Melanoma)
In short: as §1

K-562 = K-562 (Leukemia)
In short: as §1

M14 = M14 (Melanoma)
In short: as §1

NCI-H460 = NCI-H460 (Non-Small Cell Lung)
In short: as §1

SR = SR (Leukemia)
In short: as §1

HT29 = HT29 (Colon)
In short: as §1

NCI-H226 = NCI-H226 (Non-Small Cell Lung)
In short: as §1

OVCAR-8 = OVCAR-8 (Ovarian)
In short: as §1

T-47D = T-47D (Breast)
In short: as §1

786-0 = 786-0 (Renal)
In short: as §1

SNB-19 = SNB-19 (CNS)
In short: as §1

[1] = Homo sapiens, read-out: LC50 (the source's name)

In the case of `CCN(CC)C1CCN(C(C)c2cc(-c3ccccc3)nc3ccccc23)CC1.Cl.Cl` (stereo not shown) [XIX-3, 2-phenyl-4-{1-[4-(N,N-diethylamino)piperidin-1-yl]-eth-1-yl}quinoline dihydrochloride], the GI50 (MOLT-4; Homo sapiens) is reported as 4 µM, the CC50 (MOLT-4; [1]) is reported as 49 µM and the TGI (MOLT-4) is reported as 15 µM. For the same compound, the “Growth percent at 10 μM” value (MOLT-4) was “++++ (cell growth % < 20)”, the GI50 (SK-MEL-5; Homo sapiens) was 2 µM and the CC50 (SK-MEL-5; [1]) was 6 µM. For the same compound, the TGI (SK-MEL-5) was 3 µM, the “Growth percent at 10 μM” value (SK-MEL-5) was “××××× (cell growth % < −80)” and the TGI (HOP-92) was 17 µM. The “Growth percent at 10 μM” value (HOP-92) was “++ (cell growth 40 > % < 60)”, the GI50 (HOP-92; Homo sapiens) was 3 µM and the CC50 (HOP-92; [1]) was 47 µM. It also gave a GI50 (UACC-257; Homo sapiens) of 2 µM, a CC50 (UACC-257; [1]) of 8 µM and a TGI (UACC-257) of 4 µM. For the same compound, the “Growth percent at 10 μM” value (UACC-257) was “××× (cell growth −40 > % < −60)”, the GI50 (K-562; Homo sapiens, K562) was 2 µM and the CC50 (K-562; Homo sapiens, K562, read-out: LC50 (the source's name)) was 15 µM. For the same compound, the TGI (K-562) was 5 µM, the “Growth percent at 10 μM” value (K-562) was “× (cell growth 0 > % > −20)” and the GI50 (M14; Homo sapiens) was 2 µM. For the same compound, the CC50 (M14; [1]) was 8 µM, the TGI (M14) was 4 µM and the “Growth percent at 10 μM” value (M14) was “××× (cell growth −40 > % < −60)”. For the same compound, the GI50 (NCI-H460; Homo sapiens) was 7 µM, the CC50 (NCI-H460; [1]) was 54 µM and the TGI (NCI-H460) was 22 µM. For the same compound, the “Growth percent at 10 μM” value (NCI-H460) was “+ (cell growth 60 > % < 80)”, the GI50 (SR; Homo sapiens) was 3 µM and the CC50 (SR; [1]) was 49 µM. The TGI (SR) was 7 µM, the “Growth percent at 10 μM” value (SR) was “× (cell growth 0 > % > −20)” and the TGI (HT29) was 7 µM. The “Growth percent at 10 μM” value (HT29) was “++++ (cell growth % < 20)”, the GI50 (HT29; Homo sapiens, HT-29) was 2 µM and the CC50 (HT29; Homo sapiens, HT-29, read-out: LC50 (the source's name)) was 32 µM. It also gave a GI50 (NCI-H226; Homo sapiens) of 19 µM, a CC50 (NCI-H226; [1]) of 74 µM and a TGI (NCI-H226) of 38 µM. The “Growth percent at 10 μM” value (NCI-H226) was “− (cell growth % > 80)”, the GI50 (OVCAR-8; Homo sapiens) was 14 µM and the CC50 (OVCAR-8; [1]) was 62 µM. The TGI (OVCAR-8) was 30 µM, the “Growth percent at 10 μM” value (OVCAR-8) was “+ (cell growth 60 > % < 80)” and the GI50 (T-47D; Homo sapiens, T47D) was 5 µM. The CC50 (T-47D; Homo sapiens, T47D, read-out: LC50 (the source's name)) was 52 µM, the TGI (T-47D) was 19 µM and the “Growth percent at 10 μM” value (T-47D) was “++ (cell growth 40 > % < 60)”. The TGI (786-0) was 23 µM, the “Growth percent at 10 μM” value (786-0) was “++ (cell growth 40 > % < 60)” and the GI50 (786-0; Homo sapiens) was 8 µM. For the same compound, the CC50 (786-0; [1]) was 54 µM, the GI50 (SNB-19; Homo sapiens) was 13 µM and the CC50 (SNB-19; [1]) was 59 µM. For the same compound, the TGI (SNB-19) was 28 µM and the “Growth percent at 10 μM” value (SNB-19) was “− (cell growth % > 80)”.
`CC(C)(C)NC1CCN(c2cc(-c3ccc(Cl)cc3)nc3ccccc23)CC1.Cl.Cl` [XII-4, 2-(4-chloro-phenyl)-4-(4-N-tert-butylamino-piperidin-1-yl)quinoline dihydrochloride] was tested, and the “Growth percent at 10 μM” value (MOLT-4) was “++ (cell growth 40 > % < 60)”, the “Growth percent at 10 μM” value (SK-MEL-5) was “++++ (cell growth 0 > % < 20)” and the “Growth percent at 10 μM” value (HOP-92) was “++ (cell growth 40 > % < 60)”. The “Growth percent at 10 μM” value (UACC-257) was “××× (cell growth −40 < % > −60)”, the “Growth percent at 10 μM” value (K-562) was “× (cell growth 0 < % > −20)” and the “Growth percent at 10 μM” value (M14) was “×××× (cell growth −60 < % > −80)”. For the same compound, the “Growth percent at 10 μM” value (NCI-H460) was “++ (cell growth 40 > % < 60)”, the “Growth percent at 10 μM” value (SR) was “++++ (cell growth 0 > % < 20)” and the “Growth percent at 10 μM” value (HT29) was “× (cell growth 0 < % > −20)”. The “Growth percent at 10 μM” value (NCI-H226) was “− (cell growth % > 80)”, the “Growth percent at 10 μM” value (OVCAR-8) was “− (cell growth % > 80)” and the “Growth percent at 10 μM” value (T-47D) was “++ (cell growth 40 > % < 60)”. For the same compound, the “Growth percent at 10 μM” value (786-0) was “++ (cell growth 40 > % < 60)” and the “Growth percent at 10 μM” value (SNB-19) was “− (cell growth % > 80)”.
